# The Kinase Knowledgebase extract (Sharma et al. 2016)
# What was measured:
# Assay in all cases: Enzyme Assay
# [1] = target: PIK3CA (human) (UniProt P42336)
# [2] = target: PIK3CD (Human) (UniProt O00329)
# [3] = target: PIK3CG (human) (UniProt P48736)
# [4] = target: PIK3CB (Human) (UniProt P42338)
# Chain of PIK3CB (Human) (P42338 whole entry, looked up): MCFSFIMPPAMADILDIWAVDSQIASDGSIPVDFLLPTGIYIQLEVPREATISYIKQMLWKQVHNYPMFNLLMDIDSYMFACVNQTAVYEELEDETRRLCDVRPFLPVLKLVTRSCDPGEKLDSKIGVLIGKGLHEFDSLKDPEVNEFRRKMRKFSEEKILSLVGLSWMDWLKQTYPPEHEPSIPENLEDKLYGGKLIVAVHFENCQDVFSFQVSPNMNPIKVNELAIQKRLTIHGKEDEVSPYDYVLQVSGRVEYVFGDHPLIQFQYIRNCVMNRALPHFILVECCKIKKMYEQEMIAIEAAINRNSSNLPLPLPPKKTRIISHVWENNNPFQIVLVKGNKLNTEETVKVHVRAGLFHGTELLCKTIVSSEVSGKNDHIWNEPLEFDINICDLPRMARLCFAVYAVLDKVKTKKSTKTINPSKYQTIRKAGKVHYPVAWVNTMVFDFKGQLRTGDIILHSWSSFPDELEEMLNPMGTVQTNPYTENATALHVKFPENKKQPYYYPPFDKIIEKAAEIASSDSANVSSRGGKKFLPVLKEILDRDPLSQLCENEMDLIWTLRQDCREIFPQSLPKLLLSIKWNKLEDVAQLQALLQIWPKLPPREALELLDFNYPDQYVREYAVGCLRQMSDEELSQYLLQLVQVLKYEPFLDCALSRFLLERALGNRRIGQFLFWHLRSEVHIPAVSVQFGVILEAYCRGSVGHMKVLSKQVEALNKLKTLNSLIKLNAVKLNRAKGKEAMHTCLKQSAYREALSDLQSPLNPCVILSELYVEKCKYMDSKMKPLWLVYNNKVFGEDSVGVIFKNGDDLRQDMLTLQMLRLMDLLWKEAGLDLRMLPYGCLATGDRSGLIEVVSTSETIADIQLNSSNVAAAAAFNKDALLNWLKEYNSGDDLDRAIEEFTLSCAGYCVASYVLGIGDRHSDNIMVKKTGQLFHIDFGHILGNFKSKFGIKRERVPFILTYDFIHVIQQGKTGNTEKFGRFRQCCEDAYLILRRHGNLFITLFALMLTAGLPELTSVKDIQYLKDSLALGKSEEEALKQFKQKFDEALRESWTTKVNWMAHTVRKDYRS
# Chain of PIK3CD (Human) (O00329 whole entry, looked up): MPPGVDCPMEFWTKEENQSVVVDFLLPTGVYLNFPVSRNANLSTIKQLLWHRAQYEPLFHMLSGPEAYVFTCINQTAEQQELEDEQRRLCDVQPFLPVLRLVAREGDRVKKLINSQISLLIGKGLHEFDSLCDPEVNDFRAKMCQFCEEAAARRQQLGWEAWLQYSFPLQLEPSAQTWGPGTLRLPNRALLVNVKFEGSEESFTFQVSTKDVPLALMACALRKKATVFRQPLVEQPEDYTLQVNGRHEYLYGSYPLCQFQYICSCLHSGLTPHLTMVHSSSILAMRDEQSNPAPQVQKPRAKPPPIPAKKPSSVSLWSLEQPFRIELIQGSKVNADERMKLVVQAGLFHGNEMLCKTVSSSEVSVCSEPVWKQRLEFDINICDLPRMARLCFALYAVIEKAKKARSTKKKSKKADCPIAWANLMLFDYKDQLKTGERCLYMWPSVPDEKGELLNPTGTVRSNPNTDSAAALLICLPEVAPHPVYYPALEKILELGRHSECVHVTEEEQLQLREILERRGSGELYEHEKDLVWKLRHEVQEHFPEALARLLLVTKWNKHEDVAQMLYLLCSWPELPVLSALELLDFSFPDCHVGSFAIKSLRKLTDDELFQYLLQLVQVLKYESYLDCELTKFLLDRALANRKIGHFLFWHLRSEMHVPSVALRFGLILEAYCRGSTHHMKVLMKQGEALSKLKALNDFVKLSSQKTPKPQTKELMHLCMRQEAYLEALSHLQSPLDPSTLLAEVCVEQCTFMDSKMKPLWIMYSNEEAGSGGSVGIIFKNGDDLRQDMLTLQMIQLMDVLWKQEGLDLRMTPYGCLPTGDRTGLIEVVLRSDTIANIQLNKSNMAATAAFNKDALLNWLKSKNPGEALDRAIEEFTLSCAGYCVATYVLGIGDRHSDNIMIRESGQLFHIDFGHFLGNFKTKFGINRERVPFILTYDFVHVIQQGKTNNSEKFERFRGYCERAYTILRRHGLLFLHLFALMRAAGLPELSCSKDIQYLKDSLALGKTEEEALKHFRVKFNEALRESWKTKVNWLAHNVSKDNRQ
# Chain of PIK3CG (human) (P48736 whole entry, looked up): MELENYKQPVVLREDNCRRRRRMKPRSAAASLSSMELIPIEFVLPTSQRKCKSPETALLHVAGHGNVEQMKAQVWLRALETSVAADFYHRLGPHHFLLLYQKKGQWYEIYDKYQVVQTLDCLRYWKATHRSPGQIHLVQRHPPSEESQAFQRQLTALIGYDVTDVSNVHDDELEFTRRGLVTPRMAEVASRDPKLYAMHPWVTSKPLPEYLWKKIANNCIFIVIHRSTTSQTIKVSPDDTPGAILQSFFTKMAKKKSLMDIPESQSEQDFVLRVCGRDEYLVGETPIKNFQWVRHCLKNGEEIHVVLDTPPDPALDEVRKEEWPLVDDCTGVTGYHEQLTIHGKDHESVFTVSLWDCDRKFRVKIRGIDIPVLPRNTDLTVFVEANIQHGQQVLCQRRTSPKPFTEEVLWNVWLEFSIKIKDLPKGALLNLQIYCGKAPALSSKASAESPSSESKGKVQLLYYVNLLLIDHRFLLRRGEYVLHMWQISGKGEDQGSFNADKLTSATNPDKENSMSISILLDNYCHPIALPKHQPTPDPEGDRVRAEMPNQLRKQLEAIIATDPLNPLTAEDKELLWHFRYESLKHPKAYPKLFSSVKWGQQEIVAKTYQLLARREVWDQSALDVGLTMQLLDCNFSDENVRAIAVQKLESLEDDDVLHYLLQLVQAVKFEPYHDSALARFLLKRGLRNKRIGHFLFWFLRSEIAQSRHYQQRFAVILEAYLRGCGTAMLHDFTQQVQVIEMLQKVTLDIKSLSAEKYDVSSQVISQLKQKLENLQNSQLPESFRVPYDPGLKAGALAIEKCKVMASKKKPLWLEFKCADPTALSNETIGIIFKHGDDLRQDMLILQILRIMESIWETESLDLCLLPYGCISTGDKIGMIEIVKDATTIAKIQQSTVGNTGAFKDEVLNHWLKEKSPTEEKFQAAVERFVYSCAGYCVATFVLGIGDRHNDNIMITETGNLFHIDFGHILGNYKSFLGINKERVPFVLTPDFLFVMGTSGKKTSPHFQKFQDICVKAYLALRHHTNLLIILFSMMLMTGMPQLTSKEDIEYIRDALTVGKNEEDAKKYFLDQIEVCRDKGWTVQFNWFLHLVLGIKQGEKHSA
# Chain of PIK3CA (human) (P42336 whole entry, looked up): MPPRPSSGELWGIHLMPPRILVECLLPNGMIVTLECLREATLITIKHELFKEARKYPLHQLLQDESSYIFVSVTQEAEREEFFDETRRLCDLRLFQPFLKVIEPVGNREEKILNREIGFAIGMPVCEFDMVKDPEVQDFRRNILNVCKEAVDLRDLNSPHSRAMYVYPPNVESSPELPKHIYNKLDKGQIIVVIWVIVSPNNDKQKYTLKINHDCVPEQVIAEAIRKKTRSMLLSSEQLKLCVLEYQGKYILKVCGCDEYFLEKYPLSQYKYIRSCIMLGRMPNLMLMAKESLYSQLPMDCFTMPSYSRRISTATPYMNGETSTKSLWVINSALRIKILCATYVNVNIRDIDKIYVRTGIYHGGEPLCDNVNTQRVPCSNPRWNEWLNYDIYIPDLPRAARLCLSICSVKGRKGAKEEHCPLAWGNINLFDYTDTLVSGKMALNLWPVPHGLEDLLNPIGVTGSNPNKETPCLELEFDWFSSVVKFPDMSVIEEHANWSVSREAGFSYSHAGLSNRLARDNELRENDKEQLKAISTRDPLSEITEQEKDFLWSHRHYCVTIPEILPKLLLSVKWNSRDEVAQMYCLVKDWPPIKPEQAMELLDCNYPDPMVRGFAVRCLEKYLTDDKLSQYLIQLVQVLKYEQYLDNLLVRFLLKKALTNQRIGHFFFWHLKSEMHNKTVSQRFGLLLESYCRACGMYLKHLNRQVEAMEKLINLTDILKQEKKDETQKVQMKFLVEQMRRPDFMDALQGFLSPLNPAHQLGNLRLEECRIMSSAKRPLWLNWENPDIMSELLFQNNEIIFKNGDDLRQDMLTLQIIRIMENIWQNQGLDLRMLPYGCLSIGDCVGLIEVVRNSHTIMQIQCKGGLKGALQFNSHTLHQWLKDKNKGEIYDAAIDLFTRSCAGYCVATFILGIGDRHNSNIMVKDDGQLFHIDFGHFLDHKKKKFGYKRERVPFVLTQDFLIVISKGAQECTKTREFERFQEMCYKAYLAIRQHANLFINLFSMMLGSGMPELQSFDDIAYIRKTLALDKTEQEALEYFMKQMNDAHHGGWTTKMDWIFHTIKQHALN
Compound,IC50 [1] [µM],IC50 [2] [µM],IC50 [3] [µM],IC50 [4] [µM]
COc1ncc(-c2cccc3cc([C@H](C)Nc4ncnc5scnc45)n(C4CC4)c(=O)c23)cn1,–,< 0.1,0.1 to 1,–
Cc1ncc(-c2cccc3cc([C@H](C)Nc4ncnc5scnc45)n(C4CC4)c(=O)c23)cn1,–,< 0.1,0.1 to 1,–
C[C@H](Nc1ncnc2scnc12)c1cc2ccccc2c(=O)n1-c1ccccc1,–,< 0.1,< 0.1,–
Cc1nsc2cc(C(C)Nc3ncnc4scnc34)n(-c3ccccc3)c(=O)c12 (stereo unspecified),> 10,< 0.1,–,–
COc1ncc(-c2cccc3cc([C@H](C)Nc4ccnc5scnc45)n(-c4ccccc4)c(=O)c23)cn1,–,< 0.1,0.1 to 1,> 10
Cc1sc2ncnc(N[C@@H](C)c3cc4cccc(Cl)c4c(=O)n3-c3ccccc3)c2c1C,> 10,< 0.1,–,> 10
C[C@H](Nc1ccnc2scnc12)c1cc2cccc(-c3cnn(C)c3)c2c(=O)n1-c1ccccc1,–,< 0.1,< 0.1,–
C[C@H](Nc1ncnc2scnc12)c1cc2cccc(-c3cnn(CCN4CCOCC4)c3)c2c(=O)n1-c1ccccc1,–,< 0.1,< 0.1,> 10
C[C@H](Nc1ncnc2scnc12)c1cc2cccc(Cl)c2c(=O)n1-c1cccc(C(F)(F)F)c1,> 10,0.1 to 1,0.1 to 1,–
COc1ccccc1-c1cccc2cc([C@H](C)Nc3ncnc4scnc34)n(-c3ccccc3)c(=O)c12,–,< 0.1,0.1 to 1,–
Cc1ccnc2cc(C(C)Nc3ncnc4scnc34)n(-c3ccccc3)c(=O)c12 (stereo unspecified),> 10,< 0.1,< 0.1,–
C[C@H](Nc1ncnc2scnc12)c1cc2cccc(C(=O)N3CCOCC3)c2c(=O)n1-c1ccccc1,> 10,0.1 to 1,–,> 10
C[C@H](Nc1nc(Cl)nc2scnc12)c1cc2cccc(-c3cnn(C)c3)c2c(=O)n1-c1ccccc1,–,< 0.1,0.1 to 1,–
C[C@H](Nc1ncnc2scnc12)c1cc2cccc(-c3cnc(OCc4ccccc4)nc3)c2c(=O)n1-c1ccccc1,–,< 0.1,0.1 to 1,–
C[C@H](Nc1ncnc2scnc12)c1cc2cccc(-c3cnn(C)c3)c2c(=O)n1-c1cccc(F)c1,–,< 0.1,< 0.1,–
C[C@H](Nc1ncnc2scnc12)c1cc2scc(Cl)c2c(=O)n1-c1ccccc1,–,< 0.1,< 0.1,< 0.1
C[C@H](Nc1ncnc2scnc12)c1cc2scc(-c3cnn(C)c3)c2c(=O)n1-c1ccccc1,–,0.1 to 1,0.1 to 1,> 10
C[C@H](Nc1ncnc2scnc12)c1cc2cccc(-c3cnn(C)c3)c2c(=O)n1C,–,0.1 to 1,–,–
C[C@H](Nc1ncnc2scnc12)c1cc2cccc(C(=O)O)c2c(=O)n1-c1ccccc1,> 10,–,–,> 10
Cc1nc2c(N[C@@H](C)c3cc4cccc(-c5cnn(C)c5)c4c(=O)n3-c3ccccc3)ncnc2s1,> 10,–,–,> 10
COc1ncc(-c2cccc3cc([C@H](C)Nc4ncnc5scnc45)n(-c4cccc(F)c4)c(=O)c23)cn1,–,< 0.1,0.1 to 1,> 10
CCCCc1cccc2cc([C@H](C)Nc3ncnc4scnc34)n(-c3ccccc3)c(=O)c12,–,< 0.1,< 0.1,–
C[C@H](Nc1ncnc2scnc12)c1cc2cccc(Cl)c2c(=O)n1C,–,< 0.1,< 0.1,< 0.1
C[C@H](Nc1ccnc2scnc12)c1cc2cccc(Cl)c2c(=O)n1-c1cccc(F)c1,–,< 0.1,< 0.1,0.1 to 1
C[C@H](Nc1ncnc2scnc12)c1cc2cccc(/C=C/c3ccccc3)c2c(=O)n1-c1ccccc1,–,0.1 to 1,< 0.1,–
Cc1cccc2cc([C@H](C)Nc3ncnc4scnc34)n(-c3cccc(F)c3)c(=O)c12,–,< 0.1,< 0.1,0.1 to 1

# The next lines start with the values.
IC50 [1] [µM],IC50 [2] [µM],IC50 [3] [µM],IC50 [4] [µM],Compound
0.1 to 1,< 0.1,< 0.1,–,C[C@H](Nc1ncnc2scnc12)c1cc2cccc(-c3cccc(N(C)C)c3)c2c(=O)n1-c1ccccc1
–,< 0.1,< 0.1,> 10,C[C@H](Nc1ncnc2scnc12)c1cc2cccc(-c3ccc(N(C)C)nc3)c2c(=O)n1-c1ccccc1
–,< 0.1,0.1 to 1,–,C[C@H](Nc1ncnc2scnc12)c1cc2cccc(-c3ccnc(C(F)(F)F)c3)c2c(=O)n1-c1ccccc1
0.1 to 1,< 0.1,0.1 to 1,–,C[C@H](Nc1ncnc2scnc12)c1cc2cccc(-c3ccc(=O)n(C)c3)c2c(=O)n1-c1ccccc1
> 10,–,–,> 10,C[C@H](Nc1ncnc2scnc12)c1cc2cccc(-c3cnc4c(c3)CCCC4)c2c(=O)n1-c1ccccc1
–,< 0.1,< 0.1,–,C[C@H](Nc1ncnc2scnc12)c1cc2cccc(-c3cncnc3)c2c(=O)n1-c1ccccc1
–,< 0.1,< 0.1,–,CCn1cc(-c2cccc3cc([C@H](C)Nc4ncnc5scnc45)n(-c4ccccc4)c(=O)c23)cn1
–,< 0.1,< 0.1,> 10,C[C@H](Nc1ncnc2scnc12)c1cc2cccc(-c3ccc(F)c(F)c3)c2c(=O)n1-c1ccccc1
–,< 0.1,< 0.1,–,Cc1cc(-c2cccc3cc([C@H](C)Nc4ncnc5scnc45)n(-c4ccccc4)c(=O)c23)cnc1F
0.1 to 1,< 0.1,< 0.1,–,Cc1nn(C)cc1-c1cccc2cc([C@H](C)Nc3ncnc4scnc34)n(-c3ccccc3)c(=O)c12
0.1 to 1,< 0.1,< 0.1,–,C[C@H](Nc1ncnc2scnc12)c1cc2cccc(-c3cnc(N)nc3)c2c(=O)n1-c1ccccc1
–,< 0.1,< 0.1,> 10,C[C@H](Nc1ncnc2scnc12)c1cc2cccc(-c3ccnnc3)c2c(=O)n1-c1ccccc1
–,< 0.1,< 0.1,–,Cc1cc(-c2cccc3cc([C@H](C)Nc4ncnc5scnc45)n(-c4ccccc4)c(=O)c23)cnc1C
–,< 0.1,0.1 to 1,> 10,CC(C)n1cc(-c2cccc3cc([C@H](C)Nc4ncnc5scnc45)n(-c4ccccc4)c(=O)c23)cn1
–,< 0.1,0.1 to 1,> 10,CC(C)Cn1cc(-c2cccc3cc([C@H](C)Nc4ncnc5scnc45)n(-c4ccccc4)c(=O)c23)cn1
0.1 to 1,< 0.1,< 0.1,–,C[C@H](Nc1ncnc2scnc12)c1cc2cccc(-c3ccoc3)c2c(=O)n1-c1ccccc1
0.1 to 1,< 0.1,< 0.1,–,COc1cccc(-c2cccc3cc([C@H](C)Nc4ncnc5scnc45)n(-c4ccccc4)c(=O)c23)c1
–,< 0.1,< 0.1,> 10,C[C@H](Nc1ncnc2scnc12)c1cc2cccc(-c3cncc(F)c3)c2c(=O)n1-c1ccccc1
–,< 0.1,< 0.1,–,COc1ccc(-c2cccc3cc([C@H](C)Nc4ncnc5scnc45)n(-c4ccccc4)c(=O)c23)cc1

IC50 [1] [µM],IC50 [2] [µM],IC50 [3] [µM],IC50 [4] [µM],Compound
0.1 to 1,< 0.1,< 0.1,–,COc1cc(-c2cccc3cc([C@H](C)Nc4ncnc5scnc45)n(-c4ccccc4)c(=O)c23)ccn1
–,< 0.1,< 0.1,–,COc1ncc(-c2cccc3cc([C@H](C)Nc4ncnc5scnc45)n(-c4ccccc4)c(=O)c23)cc1C(F)(F)F
0.1 to 1,< 0.1,< 0.1,–,C[C@H](Nc1ncnc2scnc12)c1cc2cccc(-c3cnc4ccoc4c3)c2c(=O)n1-c1ccccc1
–,< 0.1,0.1 to 1,> 10,Cc1ncc(-c2cccc3cc([C@H](C)Nc4ncnc5scnc45)n(-c4ccccc4)c(=O)c23)cn1
–,< 0.1,0.1 to 1,–,CCCn1cc(-c2cccc3cc([C@H](C)Nc4ncnc5scnc45)n(-c4ccccc4)c(=O)c23)cn1
0.1 to 1,< 0.1,< 0.1,–,C[C@H](Nc1ncnc2scnc12)c1cc2cccc(-c3ccncc3)c2c(=O)n1-c1ccccc1
–,< 0.1,< 0.1,0.1 to 1,C[C@H](Nc1ncnc2scnc12)c1cc2cccc(C=O)c2c(=O)n1-c1ccccc1
0.1 to 1,< 0.1,< 0.1,–,C[C@H](Nc1ncnc2scnc12)c1cc2cccc(-c3ccc(N)nc3)c2c(=O)n1-c1ccccc1
0.1 to 1,< 0.1,< 0.1,–,C[C@H](Nc1ncnc2scnc12)c1cc2cccc(-c3cnc4c(c3)CCCO4)c2c(=O)n1-c1ccccc1
–,< 0.1,< 0.1,–,C[C@H](Nc1ncnc2scnc12)c1cc2cccc(-c3cn[nH]c3)c2c(=O)n1-c1ccccc1
0.1 to 1,< 0.1,< 0.1,–,COc1ncc(-c2cccc3cc([C@H](C)Nc4ncnc5scnc45)n(-c4ccccc4)c(=O)c23)s1
–,< 0.1,< 0.1,–,COc1ccc(-c2cccc3cc([C@H](C)Nc4ncnc5scnc45)n(-c4ccccc4)c(=O)c23)cn1
–,0.1 to 1,0.1 to 1,–,COc1cnccc1-c1cccc2cc([C@H](C)Nc3ncnc4scnc34)n(-c3ccccc3)c(=O)c12
–,< 0.1,< 0.1,–,C[C@H](Nc1ncnc2scnc12)c1cc2cccc(-c3cccnc3)c2c(=O)n1-c1ccccc1
–,< 0.1,< 0.1,–,Cc1ccc(-c2cccc3cc([C@H](C)Nc4ncnc5scnc45)n(-c4ccccc4)c(=O)c23)cn1
–,< 0.1,0.1 to 1,–,Cc1c(-c2cccc3cc([C@H](C)Nc4ncnc5scnc45)n(-c4ccccc4)c(=O)c23)cnn1C
0.1 to 1,< 0.1,< 0.1,–,Cc1cncc(-c2cccc3cc([C@H](C)Nc4ncnc5scnc45)n(-c4ccccc4)c(=O)c23)c1
–,< 0.1,< 0.1,–,COc1ncc(-c2cccc3cc([C@H](C)Nc4ncnc5scnc45)n(-c4ccccc4)c(=O)c23)cc1C
0.1 to 1,< 0.1,< 0.1,–,Cc1cc(-c2cccc3cc([C@H](C)Nc4ncnc5scnc45)n(-c4ccccc4)c(=O)c23)ccn1
